pIC50: −log10 of the molar value. Where a name gives a salt, the structure may show the parent alone.

These results are taken from patent publication US8889704B2 (Array BioPharma Inc., priority 2011, dated 2014).

Assay type in all cases: biochemical
One assay addresses PIM-1 (Homo sapiens, UniProt P11309). The assay can be described thus: Enzyme PIM-1 Assay ([33P]ATP incorporation into PIM2tide, filter plate). The conditions noted are these: averaged IC50; 35 μM ATP, 7.5 μM PIM2tide, 0.25 nM PIM-1, 60 min at 22° C. The essentials:
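Ten-point, 3-fold dilution series (10 μM top, 2% DMSO final) tested for inhibition of 33P transfer from 35 μM ATP to 7.5 μM PIM2tide by 0.25 nM PIM-1. Reaction 60 min, 22 °C, pH 7.4 MOPS/MgCl2 buffer; phosphocellulose capture, scintillation counting, IC50 where fitted POC equals 50.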

A further assay concerns the target recombinant rat PIM-3 (Rattus norvegicus, UniProt O70444). The assay is described as follows: PIM-3 Assay (as Example A). The conditions noted are these: averaged IC50; 30 μM ATP, 3.75 μM PIM2tide, 0.5 nM PIM-3. The essentials:
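33P incorporation from 30 μM [γ-33P]ATP into 3.75 μM PIM2tide by 0.5 nM rat PIM-3, 60 min at 22 °C in pH 7.4 MOPS buffer, read by P81 filter capture and scintillation counting. Compounds tested in 3-fold dilutions up to 10 μM final, 2% DMSO; percent-of-control data fitted by 4-parameter logistic for IC50.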

For assay [1], the target named is T1, GST-tagged recombinant full-length human Pim-2 (Homo sapiens, UniProt Q9P1W9).
T1 construct: GST-tagged recombinant full-length human Pim-2; GST
T1 sequence (Q9P1W9 whole entry): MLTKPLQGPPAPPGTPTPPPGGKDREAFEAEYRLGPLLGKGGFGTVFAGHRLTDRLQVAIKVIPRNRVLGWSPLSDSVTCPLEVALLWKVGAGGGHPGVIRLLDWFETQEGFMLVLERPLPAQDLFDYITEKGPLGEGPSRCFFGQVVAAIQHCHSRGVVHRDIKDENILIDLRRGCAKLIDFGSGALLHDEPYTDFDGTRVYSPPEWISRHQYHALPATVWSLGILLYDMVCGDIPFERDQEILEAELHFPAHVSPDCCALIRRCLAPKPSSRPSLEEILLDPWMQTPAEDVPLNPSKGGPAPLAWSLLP
The assay can be described thus: PIM-2 Assay (as Example A). The conditions noted are these: averaged IC50; 4 μM ATP, 1.0 μM PIM2tide, 1.5 nM Pim-2. The method, boiled down:
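IC50 was derived by 4-parameter logistic fitting of percent-of-control data over a 10-point, 3-fold series (highest 10 μM, 2% DMSO). Reactions held 1.5 nM GST-Pim-2 (full-length, human), 4 μM [γ-33P]ATP and 1.0 μM PIM2tide for 60 min at 22 °C, pH 7.4; 33P-peptide captured on P81 filters.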

PIM-1, sequence (P11309 whole entry, species assumed): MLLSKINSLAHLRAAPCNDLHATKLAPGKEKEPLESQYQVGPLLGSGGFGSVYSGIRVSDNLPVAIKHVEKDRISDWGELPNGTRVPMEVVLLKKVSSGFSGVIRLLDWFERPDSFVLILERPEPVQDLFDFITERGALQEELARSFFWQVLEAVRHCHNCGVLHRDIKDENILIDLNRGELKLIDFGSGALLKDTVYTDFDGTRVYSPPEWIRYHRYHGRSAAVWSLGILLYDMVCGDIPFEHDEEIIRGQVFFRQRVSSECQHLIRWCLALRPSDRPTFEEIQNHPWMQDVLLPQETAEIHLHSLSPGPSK

As to `CCOc1cc2nc(-c3nnc4ccc([C@@H](N5CC[C@@H](N)C5)C(F)(F)F)cn34)ccc2cc1F` [Example 282, (R)-1-((R)-1-(3-(7-ethoxy-6-fluoroquinolin-2-yl)-[1,2,4]triazolo[4,3-a]pyridin-6-yl)-2,2,2-trifluoroethyl)pyrrolidin-3-amine hydrochloride], the negative-log IC50 (pIC50) is 9.55 on PIM-1, 9.10 on recombinant rat PIM-3 and 6.78 in assay [1].

As for `C[C@@H](O)COc1cccc2ccc(-c3nnc4ccc([C@@H](N5CC[C@H](N)C5)C(F)(F)F)cn34)nc12` [Example 283, (R)-1-(2-(6-((R)-1-((S)-3-aminopyrrolidin-1-yl)-2,2,2-trifluoroethyl)-[1,2,4]triazolo[4,3-a]pyridin-3-yl)quinolin-8-yloxy)propan-2-ol formate], the pIC50 at PIM-1 is 9.74; at recombinant rat PIM-3 it was 9.15; in assay [1], 6.71.

Turning to `COCCc1cc2nc(-c3nnc4ccc([C@H](N5CC[C@](C)(N)C5)C(F)(F)F)cn34)ccc2cc1F` [Example 284, (S)-3-methyl-1-((S)-2,2,2-trifluoro-1-(3-(6-fluoro-7-(2-methoxyethyl)quinolin-2-yl)-[1,2,4]triazolo[4,3-a]pyridin-6-yl)ethyl)pyrrolidin-3-amine dihydrochloride], the negative logarithm of the IC50 (pIC50) at PIM-1 was 9.55; on recombinant rat PIM-3, 9.40; in assay [1], 7.30.

Regarding `CC(C)C(=O)OCCOc1cc2nc(-c3nnc4ccc([C@@H](N5CC[C@H](N)C5)C(F)(F)F)cn34)ccc2cc1F` [Example 285, 2-(2-(6-((R)-1-((S)-3-aminopyrrolidin-1-yl)-2,2,2-trifluoroethyl)-[1,2,4]triazolo[4,3-a]pyridin-3-yl)-6-fluoroquinolin-7-yloxy)ethyl isobutyrate], the negative logarithm of the IC50 (pIC50) on PIM-1 was 9.24; at recombinant rat PIM-3, 8.07; in assay [1] it was less than 6.00.

Consider `CC(C)(C)C(=O)OCCOc1cc2nc(-c3nnc4ccc([C@@H](N5CC[C@H](N)C5)C(F)(F)F)cn34)ccc2cc1F` [Example 286, 2-(2-(6-((R)-1-((S)-3-aminopyrrolidin-1-yl)-2,2,2-trifluoroethyl)-[1,2,4]triazolo[4,3-a]pyridin-3-yl)-6-fluoroquinolin-7-yloxy)ethyl pivalate], for which the figures for the pIC50 (against PIM-1; on recombinant rat PIM-3; in assay [1]) were 8.86, 7.48 and less than 6.00, respectively.

As to `CO[C@@H](C)COc1ccc2ccc(-c3nnc4ccc([C@@H](N5CC[C@H](N)C5)C(F)(F)F)cn34)nc2c1` [Example 287, (S)-1-((R)-2,2,2-trifluoro-1-(3-(7-((S)-2-methoxypropoxy)quinolin-2-yl)-[1,2,4]triazolo[4,3-a]pyridin-6-yl)ethyl)pyrrolidin-3-amine dihydrochloride], the pIC50 on PIM-1 is 9.49; on recombinant rat PIM-3, 9.15; in assay [1] it was 6.75.

In the case of `CCC(CC)C(=O)OCCOc1cc2nc(-c3nnc4ccc([C@@H](N5CC[C@H](N)C5)C(F)(F)F)cn34)ccc2cc1F` [Example 288, 2-(2-(6-((R)-1-((S)-3-aminopyrrolidin-1-yl)-2,2,2-trifluoroethyl)-[1,2,4]triazolo[4,3-a]pyridin-3-yl)-6-fluoroquinolin-7-yloxy)ethyl 2-ethylbutanoate], the pIC50 against PIM-1 was 8.03; at recombinant rat PIM-3, 7.25; in assay [1], less than 6.00.

`CCC(C)(C)C(=O)OCCOc1cc2nc(-c3nnc4ccc([C@@H](N5CC[C@H](N)C5)C(F)(F)F)cn34)ccc2cc1F` [Example 289, 2-(2-(6-((R)-1-((S)-3-aminopyrrolidin-1-yl)-2,2,2-trifluoroethyl)-[1,2,4]triazolo[4,3-a]pyridin-3-yl)-6-fluoroquinolin-7-yloxy)ethyl 2,2-dimethylbutanoate]: the values for the negative logarithm of the IC50 (pIC50) (against PIM-1; on recombinant rat PIM-3; in assay [1]) were 9.42, 8.80 and 6.34, respectively.

With `CC(C)[C@H](N)C(=O)OCCOc1cc2nc(-c3nnc4ccc([C@@H](N5CC[C@H](N)C5)C(F)(F)F)cn34)ccc2cc1F` [Example 290, (S)-2-(2-(6-((R)-1-((S)-3-aminopyrrolidin-1-yl)-2,2,2-trifluoroethyl)-[1,2,4]triazolo[4,3-a]pyridin-3-yl)-6-fluoroquinolin-7-yloxy)ethyl 2-amino-3-methylbutanoate], the pIC50 on PIM-1 is 7.53; on recombinant rat PIM-3 it was less than 7.00; in assay [1], less than 6.00.

For `CO[C@H](C)COc1cc(-c2nnc3ccc([C@@H](N4CC[C@H](N)C4)C(F)(F)F)cn23)nc2ccccc12` [Example 291, (S)-1-((R)-2,2,2-trifluoro-1-(3-(4-((R)-2-methoxypropoxy)quinolin-2-yl)-[1,2,4]triazolo[4,3-a]pyridin-6-yl)ethyl)pyrrolidin-3-amine formate], the pIC50 against PIM-1 is 9.72; at recombinant rat PIM-3, 9.30; in assay [1], 7.09.

In the case of `CCOc1cc2nc(-c3nnc4ccc([C@H](N5CC[C@@H](N)C5)C(F)(F)F)cn34)ccc2cc1F` [Example 292, (R)-1-((S)-1-(3-(7-ethoxy-6-fluoroquinolin-2-yl)-[1,2,4]triazolo[4,3-a]pyridin-6-yl)-2,2,2-trifluoroethyl)pyrrolidin-3-amine hydrochloride], the results for the pIC50 (against PIM-1; on recombinant rat PIM-3; in assay [1]) were 9.19, 8.96 and 7.17, respectively.

As for `CCOc1cc2nc(-c3nnc4ccc([C@@H](N5CC[C@@](C)(N)C5)C(F)(F)F)cn34)ccc2cc1F` [Example 293, (R)-1-((R)-1-(3-(7-ethoxy-6-fluoroquinolin-2-yl)-[1,2,4]triazolo[4,3-a]pyridin-6-yl)-2,2,2-trifluoroethyl)-3-methylpyrrolidin-3-amine hydrochloride], the results for the pIC50 (at PIM-1; on recombinant rat PIM-3; in assay [1]) were 9.40, 8.96 and 6.33, respectively.

`CCOc1cc2nc(-c3nnc4ccc([C@H](N5CC[C@@](C)(N)C5)C(F)(F)F)cn34)ccc2cc1F` [Example 294, (R)-1-((S)-1-(3-(7-ethoxy-6-fluoroquinolin-2-yl)-[1,2,4]triazolo[4,3-a]pyridin-6-yl)-2,2,2-trifluoroethyl)-3-methylpyrrolidin-3-amine hydrochloride]: the pIC50 at PIM-1 is 9.28; at recombinant rat PIM-3 it was 9.15; in assay [1] it was 7.03.

Regarding `CCOc1cc2nc(-c3nnc4ccc([C@H](N5CC[C@@H](CN)C5)C(F)(F)F)cn34)ccc2cc1F` [Example 295, ((S)-1-((S)-1-(3-(7-ethoxy-6-fluoroquinolin-2-yl)-[1,2,4]triazolo[4,3-a]pyridin-6-yl)-2,2,2-trifluoroethyl)pyrrolidin-3-yl)methanamine hydrochloride], the pIC50 is 8.59 at PIM-1, 7.92 at recombinant rat PIM-3 and 6.28 in assay [1].

For `CCOc1cc2nc(-c3nnc4ccc([C@H](N5CC[C@H](CN)C5)C(F)(F)F)cn34)ccc2cc1F` [Example 296, ((R)-1-((S)-1-(3-(7-ethoxy-6-fluoroquinolin-2-yl)-[1,2,4]triazolo[4,3-a]pyridin-6-yl)-2,2,2-trifluoroethyl)pyrrolidin-3-yl)methanamine hydrochloride], the negative-log IC50 (pIC50) is 8.82 against PIM-1, 7.92 at recombinant rat PIM-3 and less than 6.00 in assay [1].

`CC(C)(O)COc1ccc2ccc(-c3nnc4ccc([C@H](N5CC[C@](C)(N)C5)C(F)(F)F)cn34)nc2c1` [Example 297, 1-(2-(6-((S)-1-((S)-3-amino-3-methylpyrrolidin-1-yl)-2,2,2-trifluoroethyl)-[1,2,4]triazolo[4,3-a]pyridin-3-yl)quinolin-7-yloxy)-2-methylpropan-2-ol dihydrochloride]: the pIC50 is 9.74 at PIM-1, 9.70 on recombinant rat PIM-3 and 7.70 in assay [1].

As for `COCCOc1cc2nc(-c3nnc4ccc([C@H](N5CC[C@](C)(N)C5)C(F)(F)F)cn34)ccc2cc1F` [Example 298, (S)-3-methyl-1-((S)-2,2,2-trifluoro-1-(3-(6-fluoro-7-(2-methoxyethoxy)quinolin-2-yl)-[1,2,4]triazolo[4,3-a]pyridin-6-yl)ethyl)pyrrolidin-3-amine dihydrochloride], the results for the pIC50 (against PIM-1; at recombinant rat PIM-3; in assay [1]) were 9.57, 9.40 and 7.23, respectively.

Regarding `CCOc1cc2nc(-c3nnc4ccc([C@@H](N5C[C@@H](N)[C@H](OC)C5)C(F)(F)F)cn34)ccc2cc1F` [Example 299, (3R,4R)-1-((R)-1-(3-(7-ethoxy-6-fluoroquinolin-2-yl)-[1,2,4]triazolo[4,3-a]pyridin-6-yl)-2,2,2-trifluoroethyl)-4-methoxypyrrolidin-3-amine dihydrochloride], the negative logarithm of the IC50 (pIC50) on PIM-1 was 9.26; at recombinant rat PIM-3, 8.80; in assay [1] it was 6.16.

`COCCc1ccc2ccc(-c3nnc4ccc([C@H](N5CC[C@](C)(N)C5)C(F)(F)F)cn34)nc2c1` [Example 300, (S)-3-methyl-1-((S)-2,2,2-trifluoro-1-(3-(7-(2-methoxyethyl)quinolin-2-yl)-[1,2,4]triazolo[4,3-a]pyridin-6-yl)ethyl)pyrrolidin-3-amine dihydrochloride]: the pIC50 was 9.44 against PIM-1, 9.40 at recombinant rat PIM-3 and 7.19 in assay [1].
